Measured values as given in US6979684B1, “Pyrrolo[2,1-c][1,4]benzodiazepine-napthalimide conjugates linked through piperazine moiety and process for preparation thereof” (Council of Scientific and Industrial Research, priority 2004, dated 2005).

What was measured:
[1] = tested on: HCT-15; test: In vitro cytotoxicity (SRB), percentage growth inhibition, HCT-15; format: cell-based, human; details: HCT-15 (colon), 48 hours
Method: (§1) In vitro cytotoxicity against human cancer cell lines: The human cancer cell lines procured from National Cancer Institute, Frederick, U.S.A or National Center for Cell Science; Pune, India. were used in present study. Cells were grown in tissue culture flasks in complete growth medium (RPMI-1640 medium with 2 mM glutamine, 100 μg/ml streptomycin, pH 7.4, sterilized by filtration and supplemented with 10% fetal calf serum and 100 units/ml penicillin before use) at 37° C. in an atmosphere of 5% CO2 and 90% relative humidity in a carbon dioxide incubator. The cells at subconfluent stage were harvested from the flask by treatment with trypsin (0.5% in PBS containing 0.02% EDTA) for determination of cytotoxicity. Cells with viability of more than 98% as determined by trypan blue exclusion were used for assay. The cell suspension of the required cell density were prepared in complete growth medium with gentamycin (50 μg/ml) for determination of cytotoxicity.
(§2) A stock solutions of (2×10^−2 M) of test material were prepared in DMSO. The stock solutions were serially diluted with complete growth medium containing 50 μg/ml of gentamycin to obtain working test solutions of required concentrations.
(§3) In vitro cytotoxicity against human cancer cell lines was determined (Monks, A., Scudiero, D., Skehan, P, Shoemaker R., Paull, K., Vistica, D., Hose, C., Langley, J., Cronise, P., Vaigro-Wolff, A., Gray-Goodrich, M., Campbell, H., Mayo, J and Boyd M. J. Natl. Cancer Inst., 1991, 83, 757–766) using 96-well tissue culture plates. The 100 μl of cell suspension was added to each well of the 96-well tissue culture plate. The cells were incubated for 24 hours. Test materials in complete growth medium (100 μl) were added after 24 hours incubation to the wells containing cell suspension. The plates were further incubated for 48 hours (at 37° C. in an atmosphere of […] 90% relative humidity in a carbon dioxide incubator) after addition of test material and then the cell growth was stopped by gently layering trichloroacetic acid (TCA, 50 μl, 50%) on top of the medium in all the wells. The plates were incubated at 4° C. for one hour to fix the cells attached to the bottom of the wells. The liquid of all the wells was gently pipetted out and discarded. The plates were washed five times with distilled water to remove TCA, growth medium low molecular weight metabolites, serum proteins etc and air-dried. Cell growth was measured by staining with sulforhodamine B dye (Skehan et al., 1990). The adsorbed dye was dissolved in Tris-Buffer ([…], 0.01 M, pH 10.4) and plates were gently stirred for 5 minutes on a mechanical stirrer. The optical density was recorded on ELISA reader at 540 nm.
(§4) The cell growth was calculated by subtracting mean OD value of respective blank from the mean OD value of experimental set. Percent growth in presence of test material was calculated considering the growth in absence of any test material as 100% and in turn percent growth inhibition in presence of test material will be calculated.

[2] = tested on: A-549; test: In vitro cytotoxicity (SRB), percentage growth inhibition, A-549; format: cell-based, human; details: A-549 (lung), 48 hours
Method: as §1, §2, §3, §4

[3] = tested on: CT-DNA; test: DNA Thermal Denaturation Studies; format: binding; details: 1:5 [PBD]/[DNA], CT-DNA 100 μM, ligand 20 μM, sodium phosphate buffer pH 7.00, values ±0.1–0.2° C.; for Induced […]Tm ° C. after incubation at 37° C. 0 h: 0 h at 37° C.; for Induced […]Tm ° C. after incubation at 37° C. 18 h: 18 h at 37° C.
Method: For CT-DNA alone at pH 7.00±0.01, Tm=69.8° C.±0.01 (mean value from 10 separate determinations), all ΔTm values are ±0.1–0.2° C. For a 1:5 molar ratio of [PBD]/[DNA], where CT-DNA concentration=100 μM and ligand concentration=20 μM in aqueous sodium phosphate buffer [10 mM sodium phosphate+1 mM EDTA, pH 7.00±0.01].

[4] = tested on: HOP-62; test: In vitro cytotoxicity (SRB), percentage growth inhibition, HOP-62; format: cell-based, human; details: HOP-62 (lung), 48 hours
Method: as §1, §2, §3, §4

[5] = tested on: SiHa; test: In vitro cytotoxicity (SRB), percentage growth inhibition, SiHa; format: cell-based, human; details: SiHa (cervix), 48 hours
Method: as §1, §2, §3, §4

[6] = tested on: HT-29; test: In vitro cytotoxicity (SRB), percentage growth inhibition, HT-29; format: cell-based, human; details: HT-29 (colon), 48 hours
Method: as §1, §2, §3, §4

SMILES	percentage growth inhibition HCT-15 ([1]; 10^−5 mol/L) [%]	percentage growth inhibition HCT-15 ([1]; 10^−6 mol/L) [%]	percentage growth inhibition A-549 ([2]; 10^−4 mol/L) [%]	Induced […]Tm ° C. after incubation at 37° C. 0 h [3] [°C]	Induced […]Tm ° C. after incubation at 37° C. 18 h [3] [°C]	percentage growth inhibition HOP-62 ([4]; 10^−5 mol/L) [%]	percentage growth inhibition HOP-62 ([4]; 10^−6 mol/L) [%]	percentage growth inhibition SiHa ([5]; 10^−4 mol/L) [%]	percentage growth inhibition SiHa ([5]; 10^−5 mol/L) [%]	percentage growth inhibition SiHa ([5]; 10^−6 mol/L) [%]	percentage growth inhibition HT-29 ([6]; 10^−4 mol/L) [%]	percentage growth inhibition HT-29 ([6]; 10^−5 mol/L) [%]	percentage growth inhibition HT-29 ([6]; 10^−6 mol/L) [%]	percentage growth inhibition A-549 ([2]; 10^−5 mol/L) [%]	percentage growth inhibition A-549 ([2]; 10^−6 mol/L) [%]	percentage growth inhibition HOP-62 ([4]; 10^−4 mol/L) [%]
COc1cc2c(cc1OCCCCN1CCN(CCCCN3C(=O)c4cccc5cccc(c45)C3=O)CC1)N=C[C@@H]1CCCN1C2=O [VIIIe, 7-Methoxy-8-{4-[4-[4-(1,3-dioxo-benz[de]isoquinolin-2-yl)butyl]piperazin-1-yl]butyl}-oxy-(11aS)-1,2,3,11a tetrahydro-5H-pyrrolo[2,1-c][1,4]benzodiazepin-5-one]	62	59	93	20.9	21.7	93	80	42	40	44	92	78	67			
COc1cc2c(cc1OCCCN1CCN(CCN3C(=O)c4cccc5cccc(c45)C3=O)CC1)N=C[C@@H]1CCCN1C2=O [VIIIb, 7-Methoxy-8-{3-[4-[2-(1,3-dioxo-benz[de]isoquinolin-2-yl)ethyl]piperazin-1-yl]propyl}-oxy-(11aS)-1,2,3,11a tetrahydro-5H-pyrrolo[2,1-c][1,4]benzodiazepin-5-one]	59	58	88	25.8	26.7	86	72		44	54	88	85	91			
COc1cc2c(cc1OCCCN1CCN(CCCN3C(=O)c4cccc5cccc(c45)C3=O)CC1)N=C[C@@H]1CCCN1C2=O [VIIId, 7-Methoxy-8-{3-[4-[3-(1,3-dioxo-benz[de]isoquinolin-2-yl)propyl]piperazin-1-yl]propyl}-oxy-(11aS)-1,2,3,11a tetrahydro-5H-pyrrolo[2,1-c][1,4]benzodiazepin-5-one]			95	13.1	14.3			85	65	31	95	62	63	30	51	78
COc1cc2c(cc1O)N=CC1CCCN1C2=O (centres unmarked) [DC-81, reference compound]				0.3	0.7											
COc1cc2c(cc1OCCN1CCN(CCN3C(=O)c4cccc5cccc(c45)C3=O)CC1)N=C[C@@H]1CCCN1C2=O [VIIIa, 7-Methoxy-8-{2-[4-[2-(1,3-dioxo-benz[de]isoquinolin-2-yl)ethyl]piperazin-1-yl]ethyl}-oxy-(11aS)-1,2,3,11a tetrahydro-5H-pyrrolo[2,1-c][1,4]benzodiazepin-5-one]				21.9	22.7											
COc1cc2c(cc1OCCCCN1CCN(CCN3C(=O)c4cccc5cccc(c45)C3=O)CC1)N=C[C@@H]1CCCN1C2=O [VIIIc, 7-Methoxy-8-{4-[4-[2-(1,3-dioxo-benz[de]isoquinolin-2-yl)ethyl]piperazin-1-yl]butyl}-oxy-(11aS)-1,2,3,11a tetrahydro-5H-pyrrolo[2,1-c][1,4]benzodiazepin-5-one]	69	60	95	23.4	24.2	93	86	56	39		94	86	80			
